Here are results for 2 compounds from publication PMC9851200, “Multiparameter phenotypic screening for endogenous TFEB and TFE3 translocation identifies novel chemical series modulating lysosome function” (Autophagy, 2022).

Common to all, as to format: binding
Experiment [1] deals with T1, kinases (KINOMEscan panel) (Homo sapiens, UniProt Q59H18).
T1 sequence (Q59H18 1-835): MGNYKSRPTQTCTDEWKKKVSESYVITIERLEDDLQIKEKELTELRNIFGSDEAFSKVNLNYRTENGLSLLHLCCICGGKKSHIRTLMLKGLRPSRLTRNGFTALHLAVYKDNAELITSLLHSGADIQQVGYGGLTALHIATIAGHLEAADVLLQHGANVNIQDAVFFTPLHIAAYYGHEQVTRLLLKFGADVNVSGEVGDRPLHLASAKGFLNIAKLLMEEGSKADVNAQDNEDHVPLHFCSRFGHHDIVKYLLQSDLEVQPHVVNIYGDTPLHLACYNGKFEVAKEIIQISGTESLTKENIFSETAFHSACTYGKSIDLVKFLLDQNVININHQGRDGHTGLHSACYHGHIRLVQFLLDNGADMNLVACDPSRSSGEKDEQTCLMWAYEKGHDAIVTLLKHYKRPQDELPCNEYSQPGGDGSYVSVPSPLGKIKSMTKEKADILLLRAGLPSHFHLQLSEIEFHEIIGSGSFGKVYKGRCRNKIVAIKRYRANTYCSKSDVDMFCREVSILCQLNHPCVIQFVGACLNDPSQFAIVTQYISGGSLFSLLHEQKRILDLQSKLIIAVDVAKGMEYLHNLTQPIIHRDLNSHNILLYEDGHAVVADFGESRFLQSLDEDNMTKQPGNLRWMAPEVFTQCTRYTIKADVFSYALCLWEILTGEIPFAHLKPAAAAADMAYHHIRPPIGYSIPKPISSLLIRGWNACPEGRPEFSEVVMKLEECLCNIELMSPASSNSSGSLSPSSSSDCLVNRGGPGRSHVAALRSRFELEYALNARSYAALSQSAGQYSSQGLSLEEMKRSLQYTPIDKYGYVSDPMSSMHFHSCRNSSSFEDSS
As to conditions: kinase TNNI3K; NEW KINOMEscan.

Experiment [2] addresses kinases (KINOMEscan panel) (Homo sapiens, UniProt Q86UE8). As to conditions: kinase TLK2; NEW KINOMEscan.
For experiment [3], the target named is T2, kinases (KINOMEscan panel) (Homo sapiens, UniProt Q8TD19).
T2 sequence (Q8TD19 1-979): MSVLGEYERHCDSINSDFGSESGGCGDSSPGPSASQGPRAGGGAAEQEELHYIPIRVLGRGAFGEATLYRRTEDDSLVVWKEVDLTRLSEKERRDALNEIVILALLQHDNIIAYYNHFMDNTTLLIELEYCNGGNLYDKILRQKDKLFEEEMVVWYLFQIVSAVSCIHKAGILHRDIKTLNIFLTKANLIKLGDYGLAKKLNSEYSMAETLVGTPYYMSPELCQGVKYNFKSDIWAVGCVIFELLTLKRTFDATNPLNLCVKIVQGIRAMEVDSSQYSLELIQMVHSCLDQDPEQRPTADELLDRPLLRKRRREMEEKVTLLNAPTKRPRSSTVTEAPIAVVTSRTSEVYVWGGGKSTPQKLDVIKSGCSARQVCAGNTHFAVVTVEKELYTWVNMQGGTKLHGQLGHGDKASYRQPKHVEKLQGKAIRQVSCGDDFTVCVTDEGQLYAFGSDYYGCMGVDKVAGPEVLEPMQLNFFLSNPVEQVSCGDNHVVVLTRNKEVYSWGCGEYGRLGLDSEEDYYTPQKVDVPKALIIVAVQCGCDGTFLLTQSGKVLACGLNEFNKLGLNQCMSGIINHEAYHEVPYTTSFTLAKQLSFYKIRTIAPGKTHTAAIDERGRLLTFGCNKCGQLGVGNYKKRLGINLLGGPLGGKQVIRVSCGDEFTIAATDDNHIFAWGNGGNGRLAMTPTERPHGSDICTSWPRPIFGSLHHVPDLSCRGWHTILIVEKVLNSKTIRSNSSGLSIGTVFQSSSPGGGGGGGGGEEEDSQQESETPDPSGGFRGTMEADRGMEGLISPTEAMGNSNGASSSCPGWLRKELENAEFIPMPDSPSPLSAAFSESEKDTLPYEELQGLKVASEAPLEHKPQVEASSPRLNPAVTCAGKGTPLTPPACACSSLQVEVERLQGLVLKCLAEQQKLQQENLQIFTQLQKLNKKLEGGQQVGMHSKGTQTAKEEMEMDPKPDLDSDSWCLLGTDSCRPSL
As to conditions: NEK9; NEW KINOMEscan.

The target in experiment [4] is T3, kinases (KINOMEscan panel) (Homo sapiens, UniProt Q99640).
T3 sequence (Q99640 1-499): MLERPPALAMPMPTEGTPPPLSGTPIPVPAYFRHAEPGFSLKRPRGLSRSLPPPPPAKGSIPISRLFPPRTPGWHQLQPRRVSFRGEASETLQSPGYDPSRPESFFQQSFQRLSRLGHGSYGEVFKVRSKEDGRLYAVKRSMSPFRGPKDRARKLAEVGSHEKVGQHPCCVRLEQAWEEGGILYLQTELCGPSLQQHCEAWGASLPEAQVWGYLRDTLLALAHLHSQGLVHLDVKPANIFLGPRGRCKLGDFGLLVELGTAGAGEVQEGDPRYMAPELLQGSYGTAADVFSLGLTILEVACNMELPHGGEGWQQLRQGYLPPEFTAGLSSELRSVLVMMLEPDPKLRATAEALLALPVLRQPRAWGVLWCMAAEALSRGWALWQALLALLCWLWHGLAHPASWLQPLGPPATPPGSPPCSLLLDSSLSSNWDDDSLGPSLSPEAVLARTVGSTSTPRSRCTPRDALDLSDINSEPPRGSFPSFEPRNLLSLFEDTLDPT
The following applies: kinase PKMYT1; NEW KINOMEscan.

SMILES strings stand for the structures.

kinases (KINOMEscan panel) (Homo sapiens, UniProt Q86UE8), sequence (Q86UE8 whole entry): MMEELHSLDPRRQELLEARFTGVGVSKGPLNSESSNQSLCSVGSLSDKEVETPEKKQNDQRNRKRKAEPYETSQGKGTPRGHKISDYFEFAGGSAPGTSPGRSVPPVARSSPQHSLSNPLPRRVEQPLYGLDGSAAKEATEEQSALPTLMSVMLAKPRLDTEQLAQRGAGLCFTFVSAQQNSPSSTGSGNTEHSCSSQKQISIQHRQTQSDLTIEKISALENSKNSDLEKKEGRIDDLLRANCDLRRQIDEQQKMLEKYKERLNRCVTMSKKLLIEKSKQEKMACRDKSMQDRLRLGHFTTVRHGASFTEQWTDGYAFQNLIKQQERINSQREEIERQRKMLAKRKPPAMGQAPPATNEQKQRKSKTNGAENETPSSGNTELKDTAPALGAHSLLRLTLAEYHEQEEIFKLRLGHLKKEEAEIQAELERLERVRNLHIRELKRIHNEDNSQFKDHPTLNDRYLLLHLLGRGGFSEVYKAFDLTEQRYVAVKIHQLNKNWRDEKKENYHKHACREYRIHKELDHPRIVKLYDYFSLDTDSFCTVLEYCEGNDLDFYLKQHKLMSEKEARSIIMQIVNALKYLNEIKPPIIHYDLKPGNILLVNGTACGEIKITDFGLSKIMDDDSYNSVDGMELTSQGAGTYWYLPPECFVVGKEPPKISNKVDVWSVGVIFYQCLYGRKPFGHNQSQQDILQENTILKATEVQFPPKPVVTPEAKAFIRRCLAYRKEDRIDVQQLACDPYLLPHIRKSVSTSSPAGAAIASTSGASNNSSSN

In the case of `Cc1cccc(-c2nc(Nc3ccc4nn(C)cc4c3)c3ccccc3n2)n1` [NK167], the “KINOMEscan TNNI3K” value in experiment [1] is given as 6. Besides, in experiment [2], the “KINOMEscan TLK2” value amounted to 0. The “KINOMEscan NEK9” value in experiment [3] worked out at 0. Besides, the “KINOMEscan PKMYT1” value in experiment [4] is listed as 0.
For the compound `Cc1cccc(-c2nc(N(C)c3ccc4ncsc4c3)c3ccccc3n2)n1` [NK-161], the “KINOMEscan TNNI3K” value in experiment [1] is 9. Besides, the “KINOMEscan TLK2” value in experiment [2] is 0. Moreover, the “KINOMEscan NEK9” value in experiment [3] turned out to be 0. Also, the “KINOMEscan PKMYT1” value in experiment [4] was 0.
